In ChEMBL document CHEMBL4308841, “Synthesis, in vitro antiproliferative activity, and kinase inhibitory effects of pyrazole-containing diarylureas and diarylamides” (Eur J Med Chem, 2018):

What was measured:
SW-620 = assay: Growth inhibition of human SW620 cells assessed as cell growth at 100 uM incubated for 48 hrs by sulforhodamine B assay relative to control; assay type: functional; conditions: SW-620, 48 h, read-out: Activity
NCI/ADR-RES = assay: Growth inhibition of human NCI/ADR-RES cells assessed as cell growth at 0.1 uM incubated for 48 hrs by sulforhodamine B assay relative to control; assay type: functional; conditions: read-out: Activity
SK-MEL-5 = assay: Growth inhibition of human SK-MEL-5 cells assessed as cell growth at 1 uM incubated for 48 hrs by sulforhodamine B assay relative to control; assay type: functional; conditions: SK-MEL-5, 48 h, read-out: Activity
NCI-H226 = assay: Growth inhibition of human NCI-H226 cells assessed as cell growth at 1 uM incubated for 48 hrs by sulforhodamine B assay relative to control; assay type: functional; conditions: NCI-H226, 48 h, read-out: Activity
NCI-H522 = assay: Growth inhibition of human NCI-H522 cells incubated for 48 hrs by sulforhodamine B assay; assay type: functional, cell-based; conditions: NCI-H522, 48 h
LOX IMVI = assay: Growth inhibition of human LOXIMVI cells assessed as cell growth at 1 uM incubated for 48 hrs by sulforhodamine B assay relative to control; assay type: functional; conditions: read-out: Activity
OVCAR-8 = assay: Growth inhibition of human OVCAR8 cells assessed as cell growth at 0.01 uM incubated for 48 hrs by sulforhodamine B assay relative to control; assay type: functional; conditions: OVCAR-8, 48 h, read-out: Activity
KM12 = assay: Growth inhibition of human KM12 cells assessed as cell growth at 0.1 uM incubated for 48 hrs by sulforhodamine B assay relative to control; assay type: functional; conditions: KM12, 48 h, read-out: Activity
MDA-MB-231 = assay: Growth inhibition of human MDA-MB-231 cells assessed as cell growth at 0.1 uM incubated for 48 hrs by sulforhodamine B assay relative to control; assay type: functional; conditions: MDA-MB-231, 48 h, read-out: Activity
DU-145 = assay: Growth inhibition of human DU145 cells assessed as cell growth at 0.1 uM incubated for 48 hrs by sulforhodamine B assay relative to control; assay type: functional; conditions: DU-145, 48 h, read-out: Activity
MDA-MB-435 [1] = assay: Growth inhibition of human MDA-MB-435 cells assessed as cell growth at 100 uM incubated for 48 hrs by sulforhodamine B assay relative to control; assay type: functional; conditions: MDA-MB-435, 48 h, read-out: Activity
NCI-H23 = assay: Growth inhibition of human NCI-H23 cells assessed as cell growth at 0.01 uM incubated for 48 hrs by sulforhodamine B assay relative to control; assay type: functional; conditions: NCI-H23, 48 h, read-out: Activity
A498 = assay: Growth inhibition of human A498 cells assessed as cell growth at 0.01 uM incubated for 48 hrs by sulforhodamine B assay relative to control; assay type: functional; conditions: A498, 48 h, read-out: Activity
MDA-MB-435 [2] = assay: Growth inhibition of human MDA-MB-435 cells assessed as cell growth at 0.01 uM incubated for 48 hrs by sulforhodamine B assay relative to control; assay type: functional; conditions: MDA-MB-435, 48 h, read-out: Activity
SNB-19 = assay: Growth inhibition of human SNB19 cells assessed as cell growth at 0.01 uM incubated for 48 hrs by sulforhodamine B assay relative to control; assay type: functional; conditions: SNB-19, 48 h, read-out: Activity
HT-29 = assay: Growth inhibition of human HT-29 cells assessed as cell growth at 100 uM incubated for 48 hrs by sulforhodamine B assay relative to control; assay type: functional; conditions: HT-29, 48 h, read-out: Activity
SN12C = assay: Growth inhibition of human SN12C cells incubated for 48 hrs by sulforhodamine B assay; assay type: functional, cell-based
IGROV-1 = assay: Growth inhibition of human IGROV1 cells assessed as cell growth at 100 uM incubated for 48 hrs by sulforhodamine B assay relative to control; assay type: functional; conditions: IGROV-1, 48 h, read-out: Activity
SK-OV-3 = assay: Growth inhibition of human SKOV3 cells assessed as cell growth at 0.01 uM incubated for 48 hrs by sulforhodamine B assay relative to control; assay type: functional; conditions: SK-OV-3, 48 h, read-out: Activity
MDA-MB-468 = assay: Growth inhibition of human MDA-MB-468 cells assessed as cell growth at 0.1 uM incubated for 48 hrs by sulforhodamine B assay relative to control; assay type: functional; conditions: MDA-MB-468, 48 h, read-out: Activity
A549 = assay: Growth inhibition of human A549/ATCC cells assessed as cell growth at 0.01 uM incubated for 48 hrs by sulforhodamine B assay relative to control; assay type: functional; conditions: A549, 48 h, read-out: Activity
SF-539 = assay: Growth inhibition of human SF539 cells assessed as cell growth at 1 uM incubated for 48 hrs by sulforhodamine B assay relative to control; assay type: functional; conditions: SF-539, 48 h, read-out: Activity
Hs-578T = assay: Growth inhibition of human Hs578T cells assessed as cell growth at 0.1 uM incubated for 48 hrs by sulforhodamine B assay relative to control; assay type: functional; conditions: read-out: Activity
SR = assay: Growth inhibition of human SR cells assessed as cell growth at 0.1 uM incubated for 48 hrs by sulforhodamine B assay relative to control; assay type: functional; conditions: read-out: Activity
SF-268 = assay: Growth inhibition of human SF268 cells assessed as cell growth at 100 uM incubated for 48 hrs by sulforhodamine B assay relative to control; assay type: functional; conditions: SF-268, 48 h, read-out: Activity
BT-549 [3] = assay: Growth inhibition of human BT549 cells assessed as cell growth at 0.01 uM incubated for 48 hrs by sulforhodamine B assay relative to control; assay type: functional; conditions: BT-549, 48 h, read-out: Activity
COLO 205 = assay: Growth inhibition of human COLO205 cells incubated for 48 hrs by sulforhodamine B assay; assay type: functional, cell-based; conditions: COLO 205, 48 h
K562 = assay: Growth inhibition of human K562 cells incubated for 48 hrs by sulforhodamine B assay; assay type: functional, cell-based; conditions: K562, 48 h
SK-MEL-2 = assay: Growth inhibition of human SK-MEL-2 cells assessed as cell growth at 0.01 uM incubated for 48 hrs by sulforhodamine B assay relative to control; assay type: functional; conditions: SK-MEL-2, 48 h, read-out: Activity
BT-549 [4] = assay: Growth inhibition of human BT549 cells assessed as cell growth at 1 uM incubated for 48 hrs by sulforhodamine B assay relative to control; assay type: functional; conditions: BT-549, 48 h, read-out: Activity
[5] = read-out: LC50 (the source's name)
[6] = read-out: pLC50 (the source's name) (converted)

Structure (SMILES): COc1cc(Cl)cc(-c2nn(-c3cccc(NC(=O)Nc4ccc(Cl)c(Cl)c4)c3)cc2-c2ccncc2)c1
- growth at 100 µM (SW-620): 7%
- growth at 0.1 µM (NCI/ADR-RES): 98%
- growth at 1 µM (SK-MEL-5): 88%
- growth at 1 µM (NCI-H226): 82%
- GI50 (NCI-H522; read-out: GI50): 1.29 µM
- CC50 (NCI-H522; [5]): > 100 µM
- TGI (NCI-H522; read-out: TGI): 44.8 µM
- GI50 (NCI-H522; read-out: pGI50 (converted)): 1.29 µM
- CC50 (NCI-H522; [6]): > 100 µM
- TGI (NCI-H522; read-out: pTGI (converted)): 4.47 µM
- growth at 1 µM (LOX IMVI): 91%
- growth at 0.01 µM (OVCAR-8): 96%
- growth at 0.1 µM (KM12): 92%
- growth at 0.1 µM (MDA-MB-231): 96%
- growth at 0.1 µM (DU-145): 97%
- growth at 100 µM (MDA-MB-435 [1]): -33%
- growth at 0.01 µM (NCI-H23): 93%
- growth at 0.01 µM (A498): 96%
- growth at 0.01 µM (MDA-MB-435 [2]): 93%
- growth at 0.01 µM (SNB-19): 92%
- growth at 100 µM (HT-29): -44%
- GI50 (SN12C; read-out: GI50): 3.1 µM
- LC50 (SN12C; read-out: LC50): > 100 µM
- TGI (SN12C; read-out: TGI): > 100 µM
- GI50 (SN12C; read-out: pGI50 (converted)): 3.09 µM
- LC50 (SN12C; read-out: pLC50 (converted)): > 100 µM
- TGI (SN12C; read-out: pTGI (converted)): > 100 µM
- growth at 100 µM (IGROV-1): 8%
- growth at 0.01 µM (SK-OV-3): 100%
- growth at 0.1 µM (MDA-MB-468): 97%
- growth at 0.01 µM (A549): 99%
- growth at 1 µM (SF-539): 82%
- growth at 0.1 µM (Hs-578T): 97%
- growth at 0.1 µM (SR): 51%
- growth at 100 µM (SF-268): 11%
- growth at 0.01 µM (BT-549 [3]): 96%
- GI50 (COLO 205; read-out: GI50): 1.71 µM
- CC50 (COLO 205; [5]): 6.4 µM
- TGI (COLO 205; read-out: TGI): 33.1 µM
- GI50 (COLO 205; read-out: pGI50 (converted)): 1.7 µM
- CC50 (COLO 205; [6]): 6.46 µM
- TGI (COLO 205; read-out: pTGI (converted)): 3.31 µM
- GI50 (K562; read-out: GI50): 1 µM
- LC50 (K562; read-out: LC50): > 100 µM
- TGI (K562; read-out: TGI): > 100 µM
- GI50 (K562; read-out: pGI50 (converted)): 1.95 µM
- LC50 (K562; read-out: pLC50 (converted)): > 100 µM
- TGI (K562; read-out: pTGI (converted)): > 100 µM
- growth at 0.01 µM (SK-MEL-2): 96%
- growth at 1 µM (BT-549 [4]): 92%
